Laboratory results reported in PubChem BioAssay AID1259407 (Chemical Carcinogenesis Research Information System (CCRIS), 2018).
Activity calls are given as the source filed them. No rule for the calls is given here.

System: CCRIS mutagenicity, Ames/micronucleus/aberration tests
Test: CCRIS mutagenicity studies
[1] = Test System: AMES SALMONELLA TYPHIMURIUM, Strain/Indicator: TA98, Metabolic Activation: NONE, Method: STANDARD PLATE
[2] = Test System: AMES SALMONELLA TYPHIMURIUM, Strain/Indicator: TA98, Metabolic Activation: RAT, LIVER, S-9, AROCLOR 1254, Method: STANDARD PLATE
[3] = Test System: AMES SALMONELLA TYPHIMURIUM, Strain/Indicator: TA100, Metabolic Activation: NONE, Method: STANDARD PLATE
[4] = Test System: AMES SALMONELLA TYPHIMURIUM, Strain/Indicator: TA100, Metabolic Activation: RAT, LIVER, S-9, AROCLOR 1254, Method: STANDARD PLATE
[5] = Test System: AMES SALMONELLA TYPHIMURIUM, Strain/Indicator: TA1535, Metabolic Activation: NONE, Method: STANDARD PLATE
[6] = Test System: AMES SALMONELLA TYPHIMURIUM, Strain/Indicator: TA1535, Metabolic Activation: RAT, LIVER, S-9, AROCLOR 1254, Method: STANDARD PLATE
[7] = Test System: AMES SALMONELLA TYPHIMURIUM, Strain/Indicator: TA1537, Metabolic Activation: NONE, Method: STANDARD PLATE
[8] = Test System: AMES SALMONELLA TYPHIMURIUM, Strain/Indicator: TA1537, Metabolic Activation: RAT, LIVER, S-9, AROCLOR 1254, Method: STANDARD PLATE

Measured: mutagenic call

O=C(O)c1ccccc1
inactive: Test System: AMES SALMONELLA TYPHIMURIUM, Strain/Indicator: TA97, Metabolic Activation: HAMSTER, LIVER, S-9, AROCLOR 1254 (10 OR 30%), Method: PREINCUBATION inactive; negative | Test System: AMES SALMONELLA TYPHIMURIUM, Strain/Indicator: TA97, Metabolic Activation: NONE, Method: PREINCUBATION inactive; negative | Test System: AMES SALMONELLA TYPHIMURIUM, Strain/Indicator: TA97, Metabolic Activation: RAT, LIVER, S-9, AROCLOR 1254, Method: PREINCUBATION inactive; negative | Test System: AMES SALMONELLA TYPHIMURIUM, Strain/Indicator: TA97, Metabolic Activation: RAT,LIVER, S-9, AROCLOR 1254 (10 OR 30%), Method: PREINCUBATION inactive; negative | Test System: AMES SALMONELLA TYPHIMURIUM, Strain/Indicator: TA97A, Metabolic Activation: NONE, Method: PREINCUBATION inactive; negative | Test System: AMES SALMONELLA TYPHIMURIUM, Strain/Indicator: TA97A, Metabolic Activation: RAT, LIVER, S-9, AROCLOR 1254, Method: PREINCUBATION inactive; negative | Test System: AMES SALMONELLA TYPHIMURIUM, Strain/Indicator: TA98, Metabolic Activation: GUINEA PIG, LIVER, S-9, PCB, Method: PREINCUBATION inactive; negative | Test System: AMES SALMONELLA TYPHIMURIUM, Strain/Indicator: TA98, Metabolic Activation: HAMSTER, LIVER, S-9, AROCLOR 1254 (10 OR 30%), Method: PREINCUBATION inactive; negative | Test System: AMES SALMONELLA TYPHIMURIUM, Strain/Indicator: TA98, Metabolic Activation: HAMSTER, LIVER, S-9, PCB, Method: PREINCUBATION inactive; negative | Test System: AMES SALMONELLA TYPHIMURIUM, Strain/Indicator: TA98, Metabolic Activation: MOUSE, LIVER, S-9, PCB, Method: PREINCUBATION inactive; negative | Test System: AMES SALMONELLA TYPHIMURIUM, Strain/Indicator: TA98, Metabolic Activation: NONE, Method: PREINCUBATION inactive; negative | [1] inactive; negative | Test System: AMES SALMONELLA TYPHIMURIUM, Strain/Indicator: TA98, Metabolic Activation: RAT, LIVER, S-9, AROCLOR 1254 (10%), Method: PREINCUBATION inactive; negative | Test System: AMES SALMONELLA TYPHIMURIUM, Strain/Indicator: TA98, Metabolic Activation: RAT, LIVER, S-9, AROCLOR 1254 (30%), Method: PREINCUBATION inactive; negative | [2] inactive; negative | Test System: AMES SALMONELLA TYPHIMURIUM, Strain/Indicator: TA98, Metabolic Activation: RAT, LIVER, S-9, PCB, Method: PREINCUBATION inactive; negative | Test System: AMES SALMONELLA TYPHIMURIUM, Strain/Indicator: TA100, Metabolic Activation: GUINEA PIG, LIVER, S-9, PCB, Method: PREINCUBATION inactive; negative | Test System: AMES SALMONELLA TYPHIMURIUM, Strain/Indicator: TA100, Metabolic Activation: HAMSTER, LIVER, S-9, AROCLOR 1254 (10 OR 30%), Method: PREINCUBATION inactive; negative | Test System: AMES SALMONELLA TYPHIMURIUM, Strain/Indicator: TA100, Metabolic Activation: HAMSTER, LIVER, S-9, PCB, Method: PREINCUBATION inactive; negative | Test System: AMES SALMONELLA TYPHIMURIUM, Strain/Indicator: TA100, Metabolic Activation: MOUSE, LIVER, S-9, PCB, Method: PREINCUBATION inactive; negative | Test System: AMES SALMONELLA TYPHIMURIUM, Strain/Indicator: TA100, Metabolic Activation: NONE, Method: PREINCUBATION inactive; negative | [3] inactive; negative | Test System: AMES SALMONELLA TYPHIMURIUM, Strain/Indicator: TA100, Metabolic Activation: RAT, LIVER, S-9, AROCLOR 1254 (10 OR 30%), Method: PREINCUBATION inactive; negative | [4] inactive; negative | Test System: AMES SALMONELLA TYPHIMURIUM, Strain/Indicator: TA100, Metabolic Activation: RAT, LIVER, S-9, PCB, Method: PREINCUBATION inactive; negative | Test System: AMES SALMONELLA TYPHIMURIUM, Strain/Indicator: TA102, Metabolic Activation: NONE, Method: PREINCUBATION inactive; negative | Test System: AMES SALMONELLA TYPHIMURIUM, Strain/Indicator: TA102, Metabolic Activation: RAT, LIVER, S-9, AROCLOR 1254, Method: PREINCUBATION inactive; negative | Test System: AMES SALMONELLA TYPHIMURIUM, Strain/Indicator: TA1535, Metabolic Activation: HAMSTER, LIVER, S-9, AROCLOR 1254 (10 OR 30%), Method: PREINCUBATION inactive; negative | Test System: AMES SALMONELLA TYPHIMURIUM, Strain/Indicator: TA1535, Metabolic Activation: NONE, Method: PREINCUBATION inactive; negative | [5] inactive; negative | Test System: AMES SALMONELLA TYPHIMURIUM, Strain/Indicator: TA1535, Metabolic Activation: RAT, LIVER, S-9, AROCLOR 1254 (10%), Method: PREINCUBATION inactive; negative | Test System: AMES SALMONELLA TYPHIMURIUM, Strain/Indicator: TA1535, Metabolic Activation: RAT, LIVER, S-9, AROCLOR 1254 (30%), Method: PREINCUBATION inactive; negative | [6] inactive; negative | Test System: AMES SALMONELLA TYPHIMURIUM, Strain/Indicator: TA1537, Metabolic Activation: HAMSTER, LIVER, S-9, AROCLOR 1254 (10 OR 30%), Method: PREINCUBATION inactive; negative | Test System: AMES SALMONELLA TYPHIMURIUM, Strain/Indicator: TA1537, Metabolic Activation: NONE, Method: PREINCUBATION inactive; negative | [7] inactive; negative | Test System: AMES SALMONELLA TYPHIMURIUM, Strain/Indicator: TA1537, Metabolic Activation: RAT, LIVER, S-9, AROCLOR 1254 (10%), Method: PREINCUBATION inactive; negative | Test System: AMES SALMONELLA TYPHIMURIUM, Strain/Indicator: TA1537, Metabolic Activation: RAT, LIVER, S-9, AROCLOR 1254 (30%), Method: PREINCUBATION inactive; negative | [8] inactive; negative | Test System: AMES SALMONELLA TYPHIMURIUM, Strain/Indicator: TA1538, Metabolic Activation: NONE, Method: STANDARD PLATE inactive; negative | Test System: AMES SALMONELLA TYPHIMURIUM, Strain/Indicator: TA1538, Metabolic Activation: RAT, LIVER, S-9, AROCLOR 1254, Method: STANDARD PLATE inactive; negative | Test System: Ames Salmonella typhimurium, Strain/Indicator: TA98, Metabolic Activation: None, Method: Direct plate incorporation inactive; negative | Test System: Ames Salmonella typhimurium, Strain/Indicator: TA98, Metabolic Activation: Rat, liver, S-9, Aroclor 1254, Method: Direct plate incorporation inactive; negative | Test System: Ames Salmonella typhimurium, Strain/Indicator: TA100, Metabolic Activation: None, Method: Direct plate incorporation inactive; negative | Test System: Ames Salmonella typhimurium, Strain/Indicator: TA100, Metabolic Activation: Rat, liver, S-9, Aroclor 1254, Method: Direct plate incorporation inactive; negative | Test System: E. COLI, Strain/Indicator: WP2, Metabolic Activation: NONE, Method: STANDARD PLATE inactive; negative | Test System: E. COLI, Strain/Indicator: WP2, Metabolic Activation: RAT, LIVER, S-9, AROCLOR 1254, Method: STANDARD PLATE inactive; negative

C[C@]12CC[C@H](O)C[C@@H]1CC[C@@H]1[C@@H]2CC[C@]2(C)NC(=O)CC[C@@H]12
inactive: [1] inactive; negative | [2] inactive; negative | [3] inactive; negative | [4] inactive; negative | [5] inactive; negative | [6] inactive; negative | [7] inactive; negative | [8] inactive; negative
